# Patent US9422248B2 (University of Iowa Research Foundation, priority 2012, dated 2016)
# Several values for one entry are separate records, joined by “and”; a condition that tells them apart may be missing. Identical values can stand only once. Like-named read-outs stand apart in the source and are kept apart here.
# Columns and labels:
# [1] = test system: scMET model (pentylenetetrazole, Metrazol); test: scMET test (subcutaneous Metrazol); format: in vivo, mouse; details: for responders at 30 mg/kg / responders at 100 mg/kg / responders at 300 mg/kg: Mus musculus, scMET, read-out: number of animals protected/number of animals tested; for responders at 30 mg/kg: 30 mg/kg ip; for responders at 100 mg/kg: 100 mg/kg ip; for responders at 300 mg/kg: 300 mg/kg ip
# Source text: (§1) All compounds (FIG. 1) were screened in three whole mouse models: the maximal electroshock model (MES), the scMET test (pentylenetetrazole, Metrazol), and the 6 Hz psychomotor seizure model of partial epilepsy (32 mA). Adult male CF No 1 albino mice (26-30 g) were used for the 6 Hz test and 18-25 g mice were used in the MES and scMet tests. The animals are housed, fed, and handled in a manner consistent with the recommendations in the National Council Publication, “Guide for the Care and Use of Laboratory Animals”. The animal studies were performed by the NINDS Anticonvulsant Screening Program under IACUC number 09-12014. All compounds were administered ip in polyethylene glycol, 30%.
# (§2) The MES model, which generates generalized tonic-clonic seizures, involved pretreating mice with experimental compound, and administering 60 Hz of alternating current (50 mA) for 2 s via corneal electrodes. Prior to current administration, the animal's corneas were treated topically with 1% tetracaine. Animals are considered protected if the hindlimb tonic extensor component is absent. The scMET test was done by pretreating mice with experimental compound and administering 85 mg/kg Metrazol into the loose folds of the skin in the midline of the neck. Eighty-five mg/kg Metrazol is the dose that causes seizures in 97% (CD97) of control animals.
# [2] = test system: maximal electroshock (MES) model; test: maximal electroshock (MES) model; format: in vivo, mouse; details: for responders at 30 mg/kg / responders at 100 mg/kg / responders at 300 mg/kg: Mus musculus, MES; for responders at 30 mg/kg: 30 mg/kg ip; for responders at 30 mg/kg / responders at 300 mg/kg: read-out: number of animals protected/number of animals tested; for responders at 100 mg/kg: 100 mg/kg ip, read-out: number of animals protected/number of animals tested (converted); for responders at 300 mg/kg: 300 mg/kg ip
# Source text: as §1, §2
# rotorod test = test: Toxicity by the rotorod test; format: in vivo; details: for TD50: rotorod, ip, probit analysis
# Source text: All compounds (FIG. 1) were screened in three whole mouse models: the maximal electroshock model (MES), the scMET test (pentylenetetrazole, Metrazol), and the 6 Hz psychomotor seizure model of partial epilepsy (32 mA). Adult male CF No 1 albino mice (26-30 g) were used for the 6 Hz test and 18-25 g mice were used in the MES and scMet tests. The animals are housed, fed, and handled in a manner consistent with the recommendations in the National Council Publication, “Guide for the Care and Use of Laboratory Animals”. […] All compounds were administered ip in polyethylene glycol, 30%.
# The 6 Hz test (also known as the minimal clonic seizure, or psychomotor test) involved delivering a corneal stimulus of 32 mA for 3 s. […] Seizures consist of a minimal clonic phase followed by stereotyped automatistic behaviors. Animals not showing such behaviors were considered protected. Toxicity was determined by the rotorod test. For this test, the animal is placed on a rotorod at 6 rpm following dosing. The animal is considered toxic if it falls off the rotorod three times in a 1 min period. The ED50, TD50 and confidence intervals were determined by probit analysis.
# 6 Hz (32 mA) model = test: 6 Hz (32 mA) psychomotor seizure model of partial epilepsy; format: in vivo, mouse; details: for ED50: ip; for complete protection, animals: 6 Hz, one or more time points from 0.25 or 1 h; for antiseizure activity in the 6 Hz model: mouse, in vivo; for Protective effects, number of animals protected/number of animals tested: 100 mg/kg ip
# Source text: as §1
# The 6 Hz test (also known as the minimal clonic seizure, or psychomotor test) involved delivering a corneal stimulus of 32 mA for 3 s. This current elicits psychomotor seizures in 97% of untreated animals. Seizures consist of a minimal clonic phase followed by stereotyped automatistic behaviors. Animals not showing such behaviors were considered protected. Toxicity was determined by the rotorod test. For this test, the animal is placed on a rotorod at 6 rpm following dosing. The animal is considered toxic if it falls off the rotorod three times in a 1 min period. The ED50, TD50 and confidence intervals were determined by probit analysis.
# [3] = Mus musculus, 6 Hz (32 mA), probit analysis, read-out: ED50
SMILES,responders at 30 mg/kg ([1]; 0.5 h) [%],responders at 30 mg/kg ([1]; 4 h) [%],responders at 100 mg/kg ([1]; 0.5 h) [%],responders at 100 mg/kg ([1]; 4 h) [%],responders at 300 mg/kg ([1]; 0.5 h) [%],responders at 300 mg/kg ([1]; 4 h) [%],responders at 30 mg/kg ([2]; 0.5 h) [%],responders at 30 mg/kg ([2]; 4 h) [%],responders at 100 mg/kg ([2]; 0.5 h) [%],responders at 100 mg/kg ([2]; 4 h) [%],responders at 300 mg/kg ([2]; 0.5 h) [%],responders at 300 mg/kg ([2]; 4 h) [%],MES protection ([2]; any dose (30-300 mg/kg ip)),TD50 (rotorod test),"ED50 (6 Hz (32 mA) model; 6 Hz (32 mA), probit analysis) [mg/kg]","complete protection, animals (6 Hz (32 mA) model; 100 mg/kg)",ED50 (6 Hz (32 mA) model; [3]) [mg/kg],MES protection ([2]; 300 mg/kg dose),"MES protection, time points after dosing ([2]; 300 mg/kg dose)",responders at 100 mg/kg ([2]; 0.25 h) [%],further results
"CC(C)c1cc(C(O)C(F)(F)F)cc(Br)c1O (stereo not drawn) [RM122, 2-Bromo-6-isopropyl-4-(2,2,2-trifluoro-1-hydroxy-ethyl)-phenol]",0,0,0,0,0,0,0,0,0,0,0,0,no MES protection,403 mg/kg and 403.12 mg/kg,112.45,4 of 4,112,–,–,–,–
"CC(C)c1cc(C(O)C(F)(F)F)ccc1O (stereo not drawn) [RM125, 2-iso-Propyl-4-(2,2,2-trifluoro-1-hydroxy-ethyl)-phenol]",0,0,0,0,100,100,0,0,0,0,100,100,–,161.12 mg/kg,84.12,4 of 4,84,some protection,protection at both 0.5 and 4 h,0,"scMET protection, time points after dosing ([1]; 300 mg/kg dose): protection at the highest 300 mg/kg dose at 0.5 and 4 h; responders at 100 mg/kg ([2]; 1 h): 33.3%; responders at 100 mg/kg ([2]; 2 h): 33.3%; responders at 100 mg/kg ([2]; 6 h): 0%; antiseizure activity in the 6 Hz model (6 Hz (32 mA) model): relatively good antiseizure activity"
"CCC(C)c1cc(C(O)C(F)(F)F)cc(Br)c1O (stereo not drawn) [RM129, 2-Bromo-6-sec-Butyl-4-(2,2,2-trifluoro-1-hydroxy-ethyl)-phenol]",0,0,0,0,0,0,0,0,0,0,100,0,–,144.4 mg/kg,–,4 of 4,–,some protection,protected only at 0.5 h,0,responders at 100 mg/kg ([2]; 1 h): 0%; ED50 (6 Hz (32 mA) model; Mus musculus): 87.6 mg/kg
"CCC(C)c1cc(C(O)C(F)(F)F)ccc1O (stereo not drawn) [RM131, 2-sec-Butyl-4-(2,2,2-trifluoro-1-hydroxy-ethyl)-phenol]",0,0,0,0,100,0,0,0,0,0,100,0,–,86 mg/kg and 86.04 mg/kg,53.85,4 of 4,53.8,some protection,protected only at 0.5 h,–,antiseizure activity in the 6 Hz model (6 Hz (32 mA) model): relatively good antiseizure activity
"CCc1cc(C(O)C(F)(F)F)ccc1O (stereo not drawn) [RM166, 2-Ethyl-4-(2,2,2-trifluoro-1-hydroxy-ethyl)-phenol]",0,0,0,0,0,0,0,0,0,0,0,0,no MES protection,–,–,–,–,–,–,–,"Toxicity, animals/number of animals tested (rotorod test; dose 100 mg/kg ip, 0.5 h): 0/8; Toxicity, animals/number of animals tested (rotorod test; dose 100 mg/kg ip, 4 h): 0/4; Toxicity, animals/number of animals tested (rotorod test; dose 30 ip, 0.5 h): 0/4; Toxicity, animals/number of animals tested (rotorod test; dose 30 ip, 4 h): 0/2; Toxicity, animals/number of animals tested (rotorod test; dose 300 ip, 0.5 h): 0/4; Toxicity, animals/number of animals tested (rotorod test; dose 300 ip, 4 h): 0/2; evidence of toxicity (rotorod test; doses up to 300 mg/kg): Neither RM170 nor RM166 showed any evidence of toxicity; protective effects in the 6 Hz test (6 Hz (32 mA) model; 100 mg/kg, any time point from 0.25 to 4 h): no protective effects; Protective effects, number of animals protected/number of animals tested (6 Hz (32 mA) model; 6 Hz (32 mA), 0.25 h): 0/4; Protective effects, number of animals protected/number of animals tested (6 Hz (32 mA) model; 6 Hz (32 mA), 0.5 h): 0/4; Protective effects, number of animals protected/number of animals tested (6 Hz (32 mA) model; 6 Hz (32 mA), 1 h): 0/4; Protective effects, number of animals protected/number of animals tested (6 Hz (32 mA) model; 6 Hz (32 mA), 2 h): 0/4; Protective effects, number of animals protected/number of animals tested (6 Hz (32 mA) model; 6 Hz (32 mA), 4 h): 1/4"
